Laboratory results as given in patent EP1500662A2, “Stabilizing peptides” (CORNELL RESEARCH FOUNDATION, INC., priority 2003, dated 2005).

Experiments:
Assay type in all cases: cell-based
HIV-1 CM.235 = test system: HIV-1 CM.235
Description: (§1) PBMC Infectivity Assay. PBMC were isolated from healthy blood donors by Ficoll-Hypaque centrifugation and then stimulated for 2-3 days with phytohemagglutinin (5 µg/ml) and interleukin-2 (100 U/ml). The inhibition assay was performed essentially as described previously (Trkola, A., T. Ketas, V. N. KewalRamani, F. Endorf, J. M. Binley, H. Katinger, J. Robinson, D. R. Littman, and J. P. Moore. 1998. Neutralization sensitivity of human immunodeficiency virus type 1 primary isolates to antibodies and CD4-based reagents is independent of co-receptor usage. J. Virol. 72:1876-1885; Trkola, A., W. A. Paxton, S. P. Monard, J. A. Hoxie, M. A. Siani, D. A. Thompson, L. Wu, C. R. Mackay, R. Horuk, and J. P. Moore. 1998. Genetic subtype-independent inhibition of human immunodeficiency virus type 1 replication by CC and CXC chemokines. J. Virol. 72:396-404).
(§2) Briefly, the virus inoculum was adjusted to 400-1,000 TCID50/ml in assay medium (RPMI 1640, 10% FCS, 100 U of interleukin-2 per ml, glutamine, and peptides), and 50 µl aliquots were incubated with serial dilutions of the peptide inhibitors (50 µl) for 1 h at 37 °C. […] RBMC (4 x 10^5 in 100 µl of medium) were then added. The final concentration of virus in the cultures was 20-50 TCID50/well, corresponding to 100-250 TCID50/ml. […] The viral inocula in 50% tissue culture infectious doses (TCID50) were 400-1000/ml.

HIV-1 NL4-3 = test system: HIV-1 NL4-3
Description: as §1, §2

HIV-1 JFRL = test system: HIV-1 JFRL
Description: as §1, §2

HIV-1 DJ258 = test system: HIV-1 DJ258
Description: as §1, §2

HIV-1 94ZW103 = test system: HIV-1 94ZW103
Description: as §1, §2

HIV-1 Case C 7/86 = test system: HIV-1 Case C 7/86
Description: as §1, §2

HIV-1 UG270 = test system: HIV-1 UG270
Description: as §1, §2

What does the source list for Enfuvirtide?
IC50 (HIV-1 CM.235): 79 nM; IC50 (HIV-1 NL4-3): 35 nM; IC50 (HIV-1 JFRL): 9 nM; IC50 (HIV-1 DJ258): 83 nM; IC50 (HIV-1 94ZW103): 13 nM; IC50 (HIV-1 Case C 7/86): 4 nM; IC50 (HIV-1 UG270): 257 nM
